Reference: ChEMBL document CHEMBL1155220, “The medicinal chemistry of dengue fever” (J Med Chem, 2009)
In brackets after ≈: the same amount, converted by molar mass.

How the values were obtained:
Dengue virus [1] = assay: Inhibition of Dengue virus NS3 helicase at 100 uM
[2] = Inhibition of Dengue virus NS3 helicase
[3] = Inhibition of Dengue virus IMPDH
Dengue virus [4] = assay: Antiviral activity against Dengue virus; type: functional, organism-based
Dengue virus [5] = assay: Antiviral activity against Dengue virus by cell based assay; type: functional, organism-based
[6] = Inhibition of Dengue virus 2'-O-methyl transferase
[7] = Inhibition of Dengue virus N7-methyl transferase
Dengue virus [8] = assay: Antiviral activity against Dengue virus assessed as inhibition of virus-induced cytopathic effect by cell based assay; type: functional, organism-based
Dengue virus [9] = assay: Antiviral activity against Dengue virus assessed as reduction of virus yield by cell based assay; type: functional, organism-based
[10] = Inhibition of Dengue virus sEnvelope glycoprotein binding to immobilized heparin

SMILES: CO[C@@H]1[C@H](O)[C@@H](CO)O[C@H]1n1cnc2c(=O)[nH][nH]c(=O)c21
- inhibition (Dengue virus [1]): 30%
- IC50 [2]: 30 µM

SMILES: C#Cc1c(C(N)=O)ncn1[C@@H]1O[C@H](CO)[C@@H](O)[C@H]1O
- IC50 [3]: 38 µg/mL (≈ 142 µM)

SMILES: CCN(CCCN(CC)C(=O)c1ccc(O)cc1)C(=O)c1ccc(O)cc1
- IC50 (Dengue virus [4]): 2000 µM

SMILES: CN(CCCNC(=O)c1ccc(O)cc1)CCCNC(=O)c1ccc(O)cc1
- IC50 (Dengue virus [4]): 2000 µM

SMILES: O=C(O)/C=C/c1ccc(OS(=O)(=O)O)cc1
- IC50 (Dengue virus [4]): 2000 µM

SMILES: CN(CCCNC(=O)c1ccc(O)cc1)CCCNC(=O)c1ccc2cc(O)ccc2c1
- IC50 (Dengue virus [4]): 294 µM

SMILES: CCN(CCOC(=O)/C=C/c1ccc(O)cc1)Cc1cc(Cl)ccc1O
- IC50 (Dengue virus [4]): 46 µM

SMILES: O=c1cnn([C@@H]2O[C@H](CO)[C@@H](O)[C@H]2O)c(=O)[nH]1 [6-AZAURIDINE]
- EC50 (Dengue virus [5]): 0.1 µg/mL

SMILES: O=C(O)C1=CC(=C(c2ccc(O)c(C(=O)O)c2)c2ccc(O)c(C(=O)O)c2)C=CC1=O [AURINTRICARBOXYLIC ACID]
- IC50 [6]: 127 µM
- IC50 [7]: 2.3 µM

SMILES: C[C@@]1(O)[C@H](O)[C@@H](CO)O[C@H]1n1ccc2c(N)ncnc21 [BETA-2'-C-METHYL-7-DEAZA-ADENOSINE]
- EC50 (Dengue virus [5]): 15 µM

SMILES: O[C@H]1[C@H](O)[C@@H](O)CN2CC[C@H](O)[C@H]12 [CASTANOSPERMINE]
- IC50 (Dengue virus [4]): 1 µM

SMILES: CN[C@@H]1[C@@H](O)[C@@H](O[C@@H]2[C@@H](O)[C@H](O[C@H]3O[C@H]([C@@H](C)O)[C@@H](O)[C@H](O)[C@H]3N)[C@@H](N)C[C@H]2N)OC[C@]1(C)O [GENETICIN]
- EC50 (Dengue virus [8]): 6 µM
- EC50 (Dengue virus [9]): 4 µM

SMILES: COc1cc(NC(=O)Nc2cccc(CNC(=O)O[C@H]3CCOC3)c2)ccc1-c1cnco1 [MERIMEPODIB]
- IC50 (Dengue virus [4]): 8 µM

SMILES: COc1c(C)c2c(c(O)c1C/C=C(\C)CCC(=O)O)C(=O)OC2 [MYCOPHENOLIC ACID]
- IC50 [3]: 0.1 µg/mL (≈ 0.312 µM)

SMILES: NC(=O)c1ncn([C@@H]2O[C@H](CO)[C@@H](O)[C@H]2O)n1 [RIBAVIRIN]
- EC50 (Dengue virus [4]): 49 µg/mL (≈ 201 µM)
- IC50 [3]: 1.6 µg/mL (≈ 6.55 µM)

SMILES: Cc1ccc(C(=O)Nc2ccc(S(=O)(=O)O)c3cc(S(=O)(=O)O)cc(S(=O)(=O)O)c23)cc1NC(=O)c1cccc(NC(=O)Nc2cccc(C(=O)Nc3cc(C(=O)Nc4ccc(S(=O)(=O)O)c5cc(S(=O)(=O)O)cc(S(=O)(=O)O)c45)ccc3C)c2)c1 [SURAMIN]
- IC50 [10]: 0.7 µM
